Results from PubChem BioAssay AID1963844 (Molecular Pharmacology Branch, DTP, NCI, 2024).

System: 422866-222-R5-J1-PDC complex spheroid viability
Experiment: Anticancer human tumor 422866-222-R5-J1-PDC patient-derived pancreatic adenocarcinoma cell line growth inhibition [POLQ]
Conditions: for IC50: curve of first compound; for viability, T/C: stronger effect = lower value
Method in brief: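 PDC + HUVEC + MSC complex spheroids; POLQ inhibitors ± partner drugs; top conc. at/near clinical Cmax, else 10 microM (SN-38 1 microM), half-log dilutions; 37 degrees C, 5% CO2.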

[1] = second compound 0.0316 µM, first compound 0.0316 µM
[2] = second compound 0.0316 µM, first compound 0.1 µM
[3] = second compound 0.0316 µM, first compound 0.316 µM
[4] = second compound 0.0316 µM, first compound 1 µM
[5] = second compound 0.0316 µM, first compound 3.16 µM
[6] = second compound 0.0316 µM, first compound 10 µM
[7] = second compound 0.1 µM, first compound 0.0316 µM
[8] = second compound 0.1 µM, first compound 0.1 µM
[9] = second compound 0.1 µM, first compound 0.316 µM
[10] = second compound 0.1 µM, first compound 1 µM
[11] = second compound 0.1 µM, first compound 3.16 µM
[12] = second compound 0.1 µM, first compound 10 µM
[13] = second compound 0.316 µM, first compound 0.0316 µM
[14] = second compound 0.316 µM, first compound 0.1 µM
[15] = second compound 0.316 µM, first compound 0.316 µM
[16] = second compound 0.316 µM, first compound 1 µM
[17] = second compound 0.316 µM, first compound 3.16 µM
[18] = second compound 0.316 µM, first compound 10 µM
[19] = second compound 1 µM, first compound 0.0316 µM
[20] = second compound 1 µM, first compound 0.1 µM
[21] = second compound 1 µM, first compound 0.316 µM
[22] = second compound 1 µM, first compound 1 µM
[23] = second compound 1 µM, first compound 3.16 µM
[24] = second compound 1 µM, first compound 10 µM
[25] = second compound 3.16 µM, first compound 0.0316 µM
[26] = second compound 3.16 µM, first compound 0.1 µM
[27] = second compound 3.16 µM, first compound 0.316 µM
[28] = second compound 3.16 µM, first compound 1 µM
[29] = second compound 3.16 µM, first compound 3.16 µM
[30] = second compound 3.16 µM, first compound 10 µM
[31] = second compound 10 µM, first compound 0.0316 µM
[32] = second compound 10 µM, first compound 0.1 µM
[33] = second compound 10 µM, first compound 0.316 µM
[34] = second compound 10 µM, first compound 1 µM
[35] = second compound 10 µM, first compound 3.16 µM
[36] = second compound 10 µM, first compound 10 µM
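Note: spheroids exposed to compounds for one week before readout.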
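Throughout, for viability, T/C: percent of DMSO vehicle wells luminescence so 100% = untreated viability.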

## CCCS(=O)(=O)Nc1ccc(F)c(C(=O)c2c[nH]c3ncc(-c4ccc(Cl)cc4)cc23)c1F + COC1C(OC(N)=O)C(O)C(Oc2ccc3c(O)c(NC(=O)c4ccc(O)c(CC=C(C)C)c4)c(=O)oc3c2C)OC1(C)C
Second compound 0.0316 µM
  IC50: > 10000 nM
Second compound 0.1 µM
  IC50: > 10000 nM
Second compound 0.316 µM
  IC50: > 10000 nM
Second compound 1 µM
  IC50: > 10000 nM
Second compound 3.16 µM
  IC50: > 10000 nM
Second compound 10 µM
  IC50: > 10000 nM
[1]
  viability, T/C: 96.1%
[2]
  viability, T/C: 129%
[3]
  viability, T/C: 132%
[4]
  viability, T/C: 162%
[5]
  viability, T/C: 236%
[6]
  viability, T/C: 99%
[7]
  viability, T/C: 119%
[8]
  viability, T/C: 118%
[9]
  viability, T/C: 143%
[10]
  viability, T/C: 149%
[11]
  viability, T/C: 198%
[12]
  viability, T/C: 86.6%
[13]
  viability, T/C: 98.2%
[14]
  viability, T/C: 97.8%
[15]
  viability, T/C: 129%
[16]
  viability, T/C: 177%
[17]
  viability, T/C: 173%
[18]
  viability, T/C: 107%
[19]
  viability, T/C: 101%
[20]
  viability, T/C: 114%
[21]
  viability, T/C: 129%
[22]
  viability, T/C: 167%
[23]
  viability, T/C: 217%
[24]
  viability, T/C: 90.6%
[25]
  viability, T/C: 101%
[26]
  viability, T/C: 115%
[27]
  viability, T/C: 129%
[28]
  viability, T/C: 173%
[29]
  viability, T/C: 195%
[30]
  viability, T/C: 111%
[31]
  viability, T/C: 93.9%
[32]
  viability, T/C: 121%
[33]
  viability, T/C: 145%
[34]
  viability, T/C: 161%
[35]
  viability, T/C: 198%
[36]
  viability, T/C: 93.4%

## COc1ccc([C@@H](O)c2cc(-c3ncnc4cc(N5CCOCC5)ccc34)c(F)cc2Cl)nn1 + COC1C(OC(N)=O)C(O)C(Oc2ccc3c(O)c(NC(=O)c4ccc(O)c(CC=C(C)C)c4)c(=O)oc3c2C)OC1(C)C
Second compound 0.0316 µM
  IC50: 2650 nM
Second compound 0.1 µM
  IC50: 1980 nM
Second compound 0.316 µM
  IC50: 2190 nM
Second compound 1 µM
  IC50: 2910 nM
Second compound 3.16 µM
  IC50: 2360 nM
Second compound 10 µM
  IC50: 1940 nM
[1]
  viability, T/C: 96.4%
[2]
  viability, T/C: 96%
[3]
  viability, T/C: 76.5%
[4]
  viability, T/C: 67.2%
[5]
  viability, T/C: 44.6%
[6]
  viability, T/C: 40.5%
[7]
  viability, T/C: 101%
[8]
  viability, T/C: 100%
[9]
  viability, T/C: 93.3%
[10]
  viability, T/C: 60%
[11]
  viability, T/C: 45.5%
[12]
  viability, T/C: 37.4%
[13]
  viability, T/C: 88.5%
[14]
  viability, T/C: 94.9%
[15]
  viability, T/C: 82.8%
[16]
  viability, T/C: 61.7%
[17]
  viability, T/C: 41.2%
[18]
  viability, T/C: 46.5%
[19]
  viability, T/C: 109%
[20]
  viability, T/C: 102%
[21]
  viability, T/C: 76%
[22]
  viability, T/C: 67.5%
[23]
  viability, T/C: 47.1%
[24]
  viability, T/C: 40%
[25]
  viability, T/C: 98.8%
[26]
  viability, T/C: 99.5%
[27]
  viability, T/C: 77.9%
[28]
  viability, T/C: 62%
[29]
  viability, T/C: 48.3%
[30]
  viability, T/C: 30.4%
[31]
  viability, T/C: 97.7%
[32]
  viability, T/C: 99.5%
[33]
  viability, T/C: 86.7%
[34]
  viability, T/C: 58.7%
[35]
  viability, T/C: 45.4%
[36]
  viability, T/C: 37%

## Cn1ncnc1[C@H]1c2n[nH]c(=O)c3cc(F)cc(c23)N[C@@H]1c1ccc(F)cc1 + COC1C(OC(N)=O)C(O)C(Oc2ccc3c(O)c(NC(=O)c4ccc(O)c(CC=C(C)C)c4)c(=O)oc3c2C)OC1(C)C
Second compound 0.0316 µM
  IC50: > 100 nM
Second compound 0.1 µM
  IC50: > 100 nM
Second compound 0.316 µM
  IC50: > 100 nM
Second compound 1 µM
  IC50: > 100 nM
Second compound 3.16 µM
  IC50: > 100 nM
Second compound 10 µM
  IC50: > 100 nM
Second compound 0.0316 µM, first compound 0.000316 µM
  viability, T/C: 108%
Second compound 0.0316 µM, first compound 0.001 µM
  viability, T/C: 100%
Second compound 0.0316 µM, first compound 0.00316 µM
  viability, T/C: 90%
Second compound 0.0316 µM, first compound 0.01 µM
  viability, T/C: 88.6%
[1]
  viability, T/C: 86.6%
[2]
  viability, T/C: 83.1%
Second compound 0.1 µM, first compound 0.000316 µM
  viability, T/C: 119%
Second compound 0.1 µM, first compound 0.001 µM
  viability, T/C: 87.2%
Second compound 0.1 µM, first compound 0.00316 µM
  viability, T/C: 104%
Second compound 0.1 µM, first compound 0.01 µM
  viability, T/C: 87%
[7]
  viability, T/C: 88.5%
[8]
  viability, T/C: 90.3%
Second compound 0.316 µM, first compound 0.000316 µM
  viability, T/C: 96.1%
Second compound 0.316 µM, first compound 0.001 µM
  viability, T/C: 104%
Second compound 0.316 µM, first compound 0.00316 µM
  viability, T/C: 98.8%
Second compound 0.316 µM, first compound 0.01 µM
  viability, T/C: 78.9%
[13]
  viability, T/C: 87.3%
[14]
  viability, T/C: 85.3%
Second compound 1 µM, first compound 0.000316 µM
  viability, T/C: 99%
Second compound 1 µM, first compound 0.001 µM
  viability, T/C: 110%
Second compound 1 µM, first compound 0.00316 µM
  viability, T/C: 100%
Second compound 1 µM, first compound 0.01 µM
  viability, T/C: 85.4%
[19]
  viability, T/C: 89.6%
[20]
  viability, T/C: 86.6%
Second compound 3.16 µM, first compound 0.000316 µM
  viability, T/C: 98%
Second compound 3.16 µM, first compound 0.001 µM
  viability, T/C: 87.1%
Second compound 3.16 µM, first compound 0.00316 µM
  viability, T/C: 105%
Second compound 3.16 µM, first compound 0.01 µM
  viability, T/C: 100%
[25]
  viability, T/C: 89.8%
[26]
  viability, T/C: 95.6%
Second compound 10 µM, first compound 0.000316 µM
  viability, T/C: 78.8%
Second compound 10 µM, first compound 0.001 µM
  viability, T/C: 86.2%
Second compound 10 µM, first compound 0.00316 µM
  viability, T/C: 97.1%
Second compound 10 µM, first compound 0.01 µM
  viability, T/C: 92.3%
[31]
  viability, T/C: 88.7%
[32]
  viability, T/C: 87.7%
